Test results as given in patent EP4582413A1, “ARYLTETRAHYDROPYRIDINE COMPOUND AND PEST CONTROL AGENT” (priority 2022, dated 2024).

Test system: green peach aphids (Myzus persicae)
Assay: Insecticidal test for green peach aphids
Format: in vivo
Conditions: 500 ppm chemical solution sprinkled (2.5 mg/cm^2), wingless imagoes on leaf disc, six days, 25°C; 8640 min
Protocol: Wet absorbent cotton was laid on each glass dish having an inner diameter of 3 cm, a Chinese olive leaf cut into a circle having a diameter of 3 cm was placed thereon, and four wingless green peach aphids (Myzus persicae) imagoes were released. After a day, a 10% by mass emulsion of the presently invented compound prepared according to the above formulation example for an emulsion was diluted with water containing a spreader to prepare a chemical solution having a concentration of 500 ppm. The chemical solution prepared was sprinkled (2.5 mg/cm^2) with a rotary tower sprinkler, and the dishes were capped and accommodated in a thermostatic room at 25°C. […] The test was carried out in duplicate.

SMILES | death rate [%]
CN(C)c1ccc(-c2noc(C3CC(O)=C(C(=O)Nc4ccc(F)cn4)C(=O)N3)n2)cc1 (stereo not shown) [3-118] | ≥ 90
Cc1ccc(NC(=O)C2=C(O)CC(c3nc(-c4ccnc(F)c4)no3)NC2=O)c(C)c1 (stereo not shown) [3-266] | ≥ 90
Cc1cccc(-c2cc(C3CC(O)=C(C(=O)Nc4cccc(S(C)(=O)=O)c4)C(=O)N3)cnc2Cl)c1 (stereo not shown) [2-285] | ≥ 90
CCCOc1ccc(-c2cncc(C3CC(O)=C(C(=O)Nc4ccc(F)cc4)C(=O)N3)c2)cn1 (stereo not shown) [2-007] | ≥ 90
CSc1cccc(NC(=O)C2=C(O)CC(c3cnc(Cl)c(-c4cccc(C)c4)c3)NC2=O)c1 (stereo not shown) [2-284] | ≥ 90
Cc1ccc(NC(=O)C2=C(O)CC(c3nc(-c4ncccn4)no3)NC2=O)nc1 (stereo not shown) [3-167] | ≥ 90
O=C(Nc1ccc(Cl)nn1)C1=C(O)CC(c2cnc(Cl)c(-c3ccc(Cl)nc3)c2)NC1=O (stereo not shown) [2-046] | ≥ 90

Same assay, conditions: Myzus persicae, foliar, 144 h; 500 ppm chemical solution sprinkled (2.5 mg/cm^2), wingless imagoes on leaf disc, six days, 25°C; read-out: death rate

SMILES | mortality at 500 µg/mL [%]
O=C(Nc1ccc(F)cc1)C1=C(O)CC(c2cncc(-c3cccc(C(F)(F)F)c3)c2)NC1=O (stereo not shown) [2-003] | ≥ 90
CN(C)c1ccc(-c2noc(C3CC(O)=C(C(=O)Nc4ccc(F)cc4)C(=O)N3)n2)cc1 (stereo not shown) [3-117] | ≥ 90
COC(=O)c1ccc(NC(=O)C2=C(O)CC(c3cnc(Cl)c(-c4ccc(F)cc4)c3)NC2=O)cc1 (stereo not shown) [2-292] | ≥ 90

Test system: Trichostrongylus axei
Assay: Effect test for Trichostrongylus axei
Format: in vivo
Set-up: concentration or dose not given beside the values
Conditions: test chemical solution B added to eggs in 96-well plate, unhatched eggs and inactive larvae counted 4 days after addition, 25°C, relative to untreated plot
Protocol: Agar medium with 1% potato dextrose was aliquoted into 60-µl portions in a 96-well plate, and 30 µl of sterilized water containing Trichostrongylus axei eggs and a freeze-dried Escherichia coli OP50 strain (five eggs, 10 µg/10 µl Escherichia coli) was added to each well. From above, 10 µl of test chemical solution B of the presently invented compound was added to each well, and the plate was left to stand under dark conditions at 25°C.

SMILES | efficacy (%)
Cn1ccc(NC(=O)C2=C(O)CC(c3cnc(C(F)(F)F)c(-c4ccc(F)nc4)c3)NC2=O)n1 (stereo not shown) [2-172] | ≥ 50
O=C(Nc1ncc(Cl)cc1F)C1=C(O)CC(c2cnc(C(F)(F)F)c(-c3ccc(F)nc3)c2)NC1=O (stereo not shown) [2-181] | ≥ 50
Cc1ccc(NC(=O)C2=C(O)CC(c3cnc(Cl)c(-c4cccc(C)c4)c3)NC2=O)nc1 (stereo not shown) [2-255] | ≥ 50
O=C(Nc1ccc(F)cn1)C1=C(O)CC(c2cnc(C(F)(F)F)c(-c3cccnc3)c2)NC1=O (stereo not shown) [2-251] | ≥ 50
Cn1nc(Cl)c(-c2noc(C3CC(O)=C(C(=O)Nc4nccs4)C(=O)N3)n2)c1Cl (stereo not shown) [3-171] | ≥ 50
Cc1ccc(NC(=O)C2=C(O)CC(c3nc(-c4ccccc4F)no3)NC2=O)nc1 (stereo not shown) [3-129] | ≥ 50
Cn1nc(Cl)c(-c2noc(C3CC(O)=C(C(=O)Nc4ccc(F)cn4)C(=O)N3)n2)c1Cl (stereo not shown) [3-114] | ≥ 50
Cc1cc(-c2noc(C3CC(O)=C(C(=O)Nc4ccc(F)cn4)C(=O)N3)n2)ccn1 (stereo not shown) [3-061] | ≥ 50
COc1ccc(-c2cc(C3CC(O)=C(C(=O)Nc4ccc(F)cn4)C(=O)N3)cnc2C(F)(F)F)cc1 (stereo not shown) [2-245] | ≥ 50
O=C(Nc1ccc(F)cn1)C1=C(O)CC(c2cnc(Cl)c(-c3ccnc(F)c3)c2)NC1=O (stereo not shown) [2-115] | ≥ 50
Cc1cccc(-c2cc(C3CC(O)=C(C(=O)Nc4ccc(F)cn4)C(=O)N3)cnc2Cl)c1 (stereo not shown) [2-252] | ≥ 50
COc1ccc(-c2noc(C3CC(O)=C(C(=O)Nc4ccc(F)cn4)C(=O)N3)n2)cc1 (stereo not shown) [3-137] | ≥ 50
O=C(Nc1ccc(F)cn1)C1=C(O)CC(c2nc(-c3ccc(F)c(Cl)c3)no2)NC1=O (stereo not shown) [3-141] | ≥ 50
Cn1ccc(NC(=O)C2=C(O)CC(c3nc(-c4ccc(F)cc4F)no3)NC2=O)n1 (stereo not shown) [3-154] | ≥ 50
O=C(Nc1ccc(F)cn1)C1=C(O)CC(c2cnc(C(F)(F)F)c(-c3ccccc3F)c2)NC1=O (stereo not shown) [2-249] | ≥ 50
Cc1ccc(NC(=O)C2=C(O)CC(c3nc(-c4ccc(F)cc4)no3)NC2=O)nc1 (stereo not shown) [3-127] | ≥ 50
Cc1ccc(-c2noc(C3CC(O)=C(C(=O)Nc4ccc(F)cn4)C(=O)N3)n2)cn1 (stereo not shown) [3-087] | ≥ 50
Cc1cccc(-c2cc(C3CC(O)=C(C(=O)Nc4ccc(C#N)nc4)C(=O)N3)cnc2Cl)c1 (stereo not shown) [2-266] | ≥ 50
COc1cccc(-c2cc(C3CC(O)=C(C(=O)Nc4ccc(F)cn4)C(=O)N3)cnc2C(F)(F)F)c1 (stereo not shown) [2-247] | ≥ 50

SMILES | efficacy (%)
Cc1cc(Cl)cnc1NC(=O)C1=C(O)CC(c2cnc(Cl)c(-c3ccc(F)nc3)c2)NC1=O (stereo not shown) [2-130] | ≥ 50
COc1ccccc1-c1cc(C2CC(O)=C(C(=O)Nc3ccc(F)cn3)C(=O)N2)cnc1C(F)(F)F (stereo not shown) [2-250] | ≥ 50
O=C(Nc1ccc(F)cn1)C1=C(O)CC(c2nc(-c3ccsc3)no2)NC1=O (stereo not shown) [3-110] | ≥ 50
O=C(Nc1ccc(Cl)cn1)C1=C(O)CC(c2nc(-c3cccc(F)c3)no2)NC1=O (stereo not shown) [3-180] | ≥ 50
O=C(Nc1ncc(Cl)cc1F)C1=C(O)CC(c2cnc(Cl)c(-c3ccc(F)cc3)c2)NC1=O (stereo not shown) [2-232] | ≥ 50
O=C(Nc1ccc(F)cn1)C1=C(O)CC(c2nc(-c3csc(Br)c3)no2)NC1=O (stereo not shown) [3-086] | ≥ 50
O=C(Nc1ccc(F)cn1)C1=C(O)CC(c2cnc(C(F)(F)F)c(-c3ccc(F)cc3)c2)NC1=O (stereo not shown) [2-244] | ≥ 50
O=C(Nc1ccc(F)cn1)C1=C(O)CC(c2nc(-c3cc(F)c(F)cc3F)no2)NC1=O (stereo not shown) [3-139] | ≥ 50
Cc1ccc(NC(=O)C2=C(O)CC(c3nc(-c4cccc(F)c4)no3)NC2=O)nc1 (stereo not shown) [3-128] | ≥ 50
Cn1nccc1NC(=O)C1=C(O)CC(c2cnc(Cl)c(-c3ccc(F)cc3)c2)NC1=O (stereo not shown) [2-290] | ≥ 50
Cc1cccc(-c2cc(C3CC(O)=C(C(=O)Nc4cc(C#N)ccn4)C(=O)N3)cnc2Cl)c1 (stereo not shown) [2-262] | ≥ 50
O=C(Nc1cnc(Cl)c(Cl)c1)C1=C(O)CC(c2cnc(Cl)c(-c3ccc(F)nc3)c2)NC1=O (stereo not shown) [2-126] | ≥ 50
O=C(Nc1ccc(Cl)nc1)C1=C(O)CC(c2cnc(Cl)c(-c3ccc(F)cc3)c2)NC1=O (stereo not shown) [2-221] | ≥ 50
N#Cc1ccc(NC(=O)C2=C(O)CC(c3cnc(Cl)c(-c4ccc(F)nc4)c3)NC2=O)nc1 (stereo not shown) [2-088] | ≥ 50
O=C(Nc1cc(F)ccn1)C1=C(O)CC(c2nc(-c3ccc(F)cc3F)no2)NC1=O (stereo not shown) [3-199] | ≥ 50
O=C(Nc1ccc(SC(F)(F)F)cc1)C1=C(O)CC(c2cnc(Cl)c(-c3ccc(F)nc3)c2)NC1=O (stereo not shown) [2-038] | ≥ 50
Cn1ccc(NC(=O)C2=C(O)CC(c3nc(-c4ccc(F)cc4)no3)NC2=O)n1 (stereo not shown) [3-202] | ≥ 50
O=C(Nc1ccc(F)cn1)C1=C(O)CC(c2nc(-c3ccncc3F)no2)NC1=O (stereo not shown) [3-064] | ≥ 50
Cc1cc(NC(=O)C2=C(O)CC(c3nc(-c4ccnc(F)c4)no3)NC2=O)on1 (stereo not shown) [3-121] | ≥ 50

SMILES | efficacy (%)
O=C(Nc1cccnn1)C1=C(O)CC(c2cnc(Cl)c(-c3ccc(F)nc3)c2)NC1=O (stereo not shown) [2-289] | ≥ 50
O=C(Nc1ccc(F)cn1)C1=C(O)CC(c2cnc(C(F)(F)F)c(-c3cccc(F)c3)c2)NC1=O (stereo not shown) [2-246] | ≥ 50
Cc1cccc(-c2cc(C3CC(O)=C(C(=O)Nc4ncccc4C)C(=O)N3)cnc2Cl)c1 (stereo not shown) [2-272] | ≥ 50
O=C(Nc1ccc(Cl)nc1)C1=C(O)CC(c2nc(-c3ccnc(F)c3)no2)NC1=O (stereo not shown) [3-060] | ≥ 50
CON=C(C)c1cccc(-c2noc(C3CC(O)=C(C(=O)Nc4ccc(F)cn4)C(=O)N3)n2)c1 (stereo not shown) [3-125] | ≥ 50
O=C(Nc1ccc(Br)cn1)C1=C(O)CC(c2cnc(C(F)(F)F)c(-c3ccc(F)nc3)c2)NC1=O (stereo not shown) [2-177] | ≥ 50
O=C(Nc1ccc(C(F)(F)F)nc1)C1=C(O)CC(c2cnc(Cl)c(-c3ccc(F)cc3)c2)NC1=O (stereo not shown) [2-234] | ≥ 50
O=C(Nc1ccc(C(F)(F)F)cn1)C1=C(O)CC(c2cnc(Cl)c(-c3cncc(F)c3)c2)NC1=O (stereo not shown) [2-056] | ≥ 50
O=C(Nc1ccc(Cl)nc1Cl)C1=C(O)CC(c2cnc(Cl)c(-c3ccc(F)nc3)c2)NC1=O (stereo not shown) [2-128] | ≥ 50
Cc1ccc(NC(=O)C2=C(O)CC(c3cnc(Cl)c(-c4cccc(C)c4)c3)NC2=O)nc1 (stereo not shown) [2-273] | ≥ 50
O=C(Nc1ccc(F)nc1)C1=C(O)CC(c2nc(-c3ccc(F)cc3)no2)NC1=O (stereo not shown) [3-082] | ≥ 50
Cc1ccccc1-c1cc(C2CC(O)=C(C(=O)Nc3ccc(F)cn3)C(=O)N2)cnc1C(F)(F)F (stereo not shown) [2-248] | ≥ 50
Cc1cc(NC(=O)C2=C(O)CC(c3cnc(Cl)c(-c4ccc(F)nc4)c3)NC2=O)cnc1Cl (stereo not shown) [2-129] | ≥ 50
O=C(Nc1ncc(Cl)nc1Cl)C1=C(O)CC(c2cnc(Cl)c(-c3ccc(F)nc3)c2)NC1=O (stereo not shown) [2-131] | ≥ 50
O=C(Nc1ccc(F)cn1)C1=C(O)CC(c2cnc(C(F)(F)F)c(-c3ccc(F)nc3)c2)NC1=O (stereo not shown) [2-167] | ≥ 50
Cc1cc(-c2noc(C3CC(O)=C(C(=O)Nc4cc(C(F)(F)F)n(C)n4)C(=O)N3)n2)ccn1 (stereo not shown) [3-275] | ≥ 50
O=C(Nc1ccc(Cl)cn1)C1=C(O)CC(c2cnc(C(F)(F)F)c(-c3ccc(F)nc3)c2)NC1=O (stereo not shown) [2-169] | ≥ 50
O=C(Nc1ccc(F)cn1)C1=C(O)CC(c2nc(-c3ncc(C(F)(F)F)cc3Cl)no2)NC1=O (stereo not shown) [3-148] | ≥ 50
Cc1cccc(-c2cc(C3CC(O)=C(C(=O)Nc4ccc(Cl)nc4)C(=O)N3)cnc2Cl)c1 (stereo not shown) [2-254] | ≥ 50
